Source: US4243668A, “Octahydro-1H-benzo[4,5]furo[3,2-e]-isoquinoline analgesic and narcotic antagonistic compounds” (priority 1979, dated 1981)

Assays:
[1] = test system: induction of Straub tail in mice by a highly addicting agonist such as morphine; settings: Blumberg et al. 1968; cited from earlier work
[2] = cited from earlier work; for intrinsic analgesic activity, in words: background statement
[3] = test system: pain induced by phenylquinone; assay: phenylquinone writhing test (oral anti-PQW), analgesic activity; type: in vivo, female white mice; settings: Mus musculus, po, mice, oral, phenylquinone writhing, ED50; read-out: EFFECT ED50 Oral Anti-PQW
Protocol: A standard procedure for detecting and comparing the analgesic activity of compounds in this series for which there is good correlation with human efficacy is the standard phenylquinone writhing test modified from Siegmund, et al., Proc. Soc. Exp. Biol. Med., 95, 729 (1957). A test compound suspended in 1% methocel® was given orally to fasted (17-21 hours) female white mice, 5-20 animals per double blind test. Aqueous (0.01% phenyl-p-benzoquinone) phenylquinone was injected intraperitoneally at 24 minutes later using 0.20 ml per mouse. […] The effective analgesic dose for 50% of the mice (ED50) was calculated by the moving average method of Thompson, W. R., Bact. Rev., 11, 115-145 (1947).

Straub tail = Straub tail reaction (oral), narcotic agonist effect; type: in vivo, CF1 S female mice; settings: Mus musculus, mice
Protocol: Narcotic analgesics produce in mice an erection and arching of the tail (90° or more) which is referable to spinal cord stimulation. This Straub tail reaction is not produced by other analgesics, including the narcotic antagonists.
The method used was modified from Shemano, I., and Wendel, H., Tox. Appl. Pharm., 6, 334-9 (1964). CF1 S female mice (18-21 g), 10-20 mice per dose, were intubated with log scaled doses of analgesic in 1% aqueous methylcellulose. A positive Straub tail response was recorded if a tail was erected 90° or more for 5 seconds at any time within 24 minutes after dosing. A quantal Straub tail ED50 was calculated by the moving average method [Thompson, W. R., Bact. Rev., 11, 115-145 (1947)].

[4] = test system: induction of Straub tail in mice by a highly addicting agonist such as morphine; assay: anti-Straub tail test, antagonism of morphine-induced Straub tail (narcotic antagonism); type: in vivo, Female CF1 S mice; settings: Mus musculus, sc, mice, s.c.; vs morphine sulfate 30 mg/kg i.p.; read-out: EFFECT ED50 subcutaneous(s.c.) Anti-Straub Tail

| Compound | prevention of morphine-induced Straub tail, in words [1] | intrinsic analgesic activity, in words [2] | analgetic properties in man, in words ([2]; in man, Lasagna and Beecher 1954) | ED50 [3] [mg/kg] | ED50 (Straub tail) [mg/kg] | ED50 [4] [mg/kg] |
| --- | --- | --- | --- | --- | --- | --- |
| C=CCN1CC[C@]23c4c5ccc(O)c4O[C@H]2[C@@H](O)C=C[C@H]3[C@H]1C5 [nalorphine] | prevent the induction of Straub tail in mice | some analgesic effects | analgetic properties in man | – | – | – |
| C=CCN1CC[C@]23c4c5ccc(O)c4O[C@H]2C(=O)CC[C@@]3(O)[C@H]1C5 [naloxone] | prevent the induction of Straub tail in mice | – | – | – | – | – |
| C=CCN1CC[C@]23CCCC[C@H]2[C@H]1Cc1ccc(O)cc13 [levallorphan] | – | some analgesic effects | – | – | – | – |
| COc1cccc2c1OC1CCCC3CN(CCc4ccc(C)cc4)CCC231 (centres unmarked) [Example 35] | – | – | – | 1.7 | 52 | 56 |
| C=CCN1CC[C@]23c4cccc(OC)c4O[C@H]2CCC[C@H]3C1 (relative stereo) [Example 15, 3-Allyl-9-methoxy-2,3,4,4aα,5,6,7,7aα-octahydro-1H-benzo[4,5]furo[3,2-e]isoquinoline] | – | – | – | 62 | > 135 | 0.3 |
| Oc1cccc2c1OC1CCCC3CN(CC4CCCCC4)CCC231 (centres unmarked) [Example 34] | – | – | – | 23 | > 135 | > 27 |
| Cc1ccc(CCN2CCC34c5cccc(O)c5OC3CCCC4C2)cc1 (centres unmarked) [Example 36] | – | – | – | 0.67 | 39 | > 81 |
| CC(=O)Oc1cccc2c1O[C@H]1CCC[C@H]3CN(CC4CC4)CC[C@@]231 (relative stereo) [Example 9, 3-Cyclopropylmethyl-9-acetoxy-2,3,4,4aα,5,6,7,7aα-octahydro-1H-benzo[4,5]furo[3,2-e]isoquinoline] | – | – | – | 0.75 | > 135 | 0.005 |
| COc1cccc2c1O[C@H]1CCC[C@H]3CN(CC#N)CC[C@@]231 (relative stereo) [Example 20, 9-Methoxy-2,3,4,4aα,5,6,7,7aα-octahydro-1H-benzo[4,5]furo[3,2-e]isoquinoline-3-acetonitrile] | – | – | – | 26 | > 135 | > 27 |
